Experiment [1] has as its target T1, HDAC1 (Homo sapiens, UniProt Q13547). Put plainly: biochemical. Also noted: HDAC inhibition assay, IC50. The settings on record: read-out: HDAC inhibition (HDAC1).
Experiment [2] has as its target T2, HDAC3 (Homo sapiens, UniProt O15379). Kind of experiment: biochemical. Also noted: HDAC inhibition assay, IC50. The settings on record: read-out: HDAC inhibition (HDAC3).
Experiment [3] has as its target T1, HDAC1. Kind of experiment: HDAC1 inhibition assay (details not given). Type of experiment: biochemical.
For experiment [4], the target named is T2, HDAC3. Put plainly: HDAC3 inhibition assay (details not given). Type of experiment: biochemical.

T2 sequence (O15379 whole entry): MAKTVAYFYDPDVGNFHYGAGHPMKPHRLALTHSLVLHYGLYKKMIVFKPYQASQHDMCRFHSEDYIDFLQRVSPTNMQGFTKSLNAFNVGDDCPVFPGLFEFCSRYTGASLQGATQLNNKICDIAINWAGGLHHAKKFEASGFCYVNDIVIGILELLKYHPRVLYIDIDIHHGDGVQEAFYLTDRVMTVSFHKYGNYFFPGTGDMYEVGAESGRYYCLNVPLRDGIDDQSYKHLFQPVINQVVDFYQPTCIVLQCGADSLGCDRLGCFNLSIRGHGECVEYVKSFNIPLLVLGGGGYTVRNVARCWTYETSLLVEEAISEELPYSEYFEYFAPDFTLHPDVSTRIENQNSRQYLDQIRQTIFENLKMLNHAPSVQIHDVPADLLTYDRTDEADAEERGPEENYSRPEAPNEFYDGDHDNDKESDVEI
T1 sequence (Q13547 whole entry): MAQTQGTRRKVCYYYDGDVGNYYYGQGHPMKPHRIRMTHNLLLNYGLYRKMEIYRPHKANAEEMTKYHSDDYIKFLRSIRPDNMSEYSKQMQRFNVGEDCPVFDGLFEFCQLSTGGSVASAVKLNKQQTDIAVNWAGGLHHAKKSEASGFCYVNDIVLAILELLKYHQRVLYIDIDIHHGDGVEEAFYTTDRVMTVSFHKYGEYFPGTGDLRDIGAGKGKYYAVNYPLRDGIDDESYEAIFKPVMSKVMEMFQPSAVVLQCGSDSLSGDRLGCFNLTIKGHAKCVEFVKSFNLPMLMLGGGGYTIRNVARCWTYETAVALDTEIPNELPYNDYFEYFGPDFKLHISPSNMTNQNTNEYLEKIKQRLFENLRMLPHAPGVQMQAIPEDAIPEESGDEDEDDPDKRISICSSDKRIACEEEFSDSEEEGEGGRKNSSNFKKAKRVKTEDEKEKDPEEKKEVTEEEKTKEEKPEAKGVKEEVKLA

With `Cc1ccc(C(=O)Nc2ccccc2O)cc1` [NHPMB], the IC50 in experiment [1] and in experiment [2] was 3 µM each time.
Consider `Cc1ccc(C(=O)Nc2ccccc2N)cc1` [#638, DSK638], for which the IC50 in experiment [3] was roughly 5 µM; in experiment [4] it was roughly 10 µM.
For `Nc1ccccc1NC(=O)c1ccccc1` [NAPB], the IC50 in experiment [1] came to 8 µM; in experiment [2] it was 5 µM.
In the case of `Cc1ccc(NC(=O)c2ccccc2N)cc1` [NTAB], the IC50 in experiment [1] and in experiment [2] was greater than 100 µM throughout.
For the molecule `Cc1ccc(C(=O)Nc2ccccc2)cc1` [NPMB], the IC50 in experiment [1] and in experiment [2] was greater than 100 µM each time.

For the origin of these results see publication PMC8837781, “Suppression of tumor metastasis by a RECK-activating small molecule” (Scientific Reports, 2022).
